Laboratory results published in patent US20100130597A1, “DNA-PKCS MODULATES ENERGY REGULATION AND BRAIN FUNCTION” (The United State of America, as represented by the …, priority 2007, published 2010).

Legend:
DNA-PK = DNA-PK (Homo sapiens, UniProt P78527); conditions: Hardcastle et al., J. Med. Chem. 48: 7829-46 (2005); read-out: IC50 against DNA-PK; cited from earlier work
[1] = Hot plate test, latency for pain reaction; assay type: in vivo, mice; conditions: data not shown
Experimental: Epidemiological studies indicate that people with mood disorders are twice as likely to have chronic pain compared to people without mood disorders (Ohayon et al., Arch. Gen. Psychiatry 60: 39-47 (2003)). Although it is possible that pain contributes to the depressed mood, it is also possible that perception of pain is increased in people with mood disorders. To determine whether SCID mice have altered pain tolerance, the latency for pain reaction to a hot plate was measured. […] (FIG. 30) and at 55° C.
Because tolerance to pain (Example 26) is also linked to the serotonergic pathways, measurements of the latency to pain reaction on hot plate after saline, serotonin reuptake inhibitor fluoxetine (Prozac) or serotonin antagonist GR38032F (Zofran) injection were made.
(§1) Elevated plus maze tests, light/dark chamber tests, forced swim tests (FST) and hot plate tests were performed as described earlier.

MCF7 cells = assay: Reactive oxygen species production in MCF7 cells (CM-H2DCFDA); assay type: cell-based; conditions: for Reactive oxygen species production: NU 7026 5 μM 12 h, DNP 200 μM 10 min, Troglitazone 30 μM 4 hr, Euk-134 5 μM 3 h, MnTBAP 14 μM 3 h, FIG. 4
Source text: Measurement of intracellular reactive oxygen species was based on changes in the fluorescence intensity of redox-sensitive fluorescent probes, including CM-H2DCFDA. CM-H2DCFDA is a probe for intracellular hydrogen peroxide (Jou M J et al. J. Biomed Sci 9:507 (2002)). CM-H2DCFDA rapidly diffuses into cells, reacts with intracellular glutathione and thiols, and yields a fluorescent product that is retained inside the cell (Shanker G et al. Mol Brain Res 128:48, 2004). The fluorescence intensity of CM-H2DCFDA is therefore indicative of the amount of intracellular H2O2.
Briefly, cells were incubated with 10 uM CM-H2DCFDA for 30 min at 37° C. The cells were then excited at the peak excitation wavelength for CM-H2DCFDA (485 nm) and emissions at 535 nm were measured with Wallac Victor multilable counter (Perkin Elmer). For glucose treatment, the total sugar content in the media was kept constant by supplementing with mannitol, which is not metabolized.
MCF-7 cells were obtained from ATCC and grown as recommended. Confluent MCF-7 cells were incubated with serum-free DMEM medium for 3-12 h before the experiment. MCF-7 cells were then treated with DNA-PK inhibitor NU 7026 (5 μM; Calbiochem) for 12 h, DNP (200 μM; Sigma) for 10 min, Troglitazone (30 μM) for 4 hr, Euk-134 (5 μM; Eukarion) for 3 h, MnTBAP (14 μM; Calbiochem) for 3 h and Resveratrol.

DNA-PKcs = molecular target: T1, DNA-PKcs (Homo sapiens, UniProt P78527); assay: DNA-PKcs activation in MCF7 cells, immunoblot for phosphorylated Ser2056; assay type: cell-based; conditions: for DNA-PKcs activation in the presence of 25 mM glucose: MCF7 cells, FIG. 5
T1 construct: endogenous in cells; host or cells: MCF7 (ATCC)
Experimental: MCF7 cells were obtained from the ATCC. MCF7 cells in G0 were treated with varying doses of H2O2 (FIG. 1). The cells were examined while in the G0 phase of their life cycle to mimic the post-mitotic state of cells in vivo. Low passage MCF-7 cells in G0 were exposed to varying concentrations of H2O2 for 60 minutes with or without Euk-134 or ionizing radiation (5 Gy). For Western blot analysis of DNA-PKcs activation and the activation of other signaling pathways in this study, the following antibodies were used: ACC1 (Cell Signaling); p-ACC1 (Upstate); AMP-activated protein kinase (AMPK; Cell Signaling); p-AMPK(T172) (Cell Signaling); DNA-PK (Lab Vision); p53 (Novocastra); p-DNA-PK(S2056) (Abeam); p-p53(S15) (Cell Signaling); γ-H2AX (Upstate); 53BP1 (Novus Biologicals).
Activation of DNA-PKcs was visualized by immunoblotting cell lysates with antibody specific for phosphorylated Ser2056, which is autophosphorylated during DNA-PKcs activation (Chen et al., J. Biol. Chem. 280: 14709-15 (2005)) (FIG. 1). […] Instead, H2O2 increased DNA-PKcs activation, and such activation was abrogated by the antioxidant Euk-134 (FIG. 1), a potent synthetic superoxide dismutase and catalase mimetic (Chatterjee, Am. J. Nephrol. 24: 165-77 (2004)).
MCF7 cells were then cultured in 25 mM glucose. Aliquots of the cultured MCF7 cells were treated with ionizing radiation and/or the DNA-PKcs-specific inhibitor NU7026. Treatment with glucose and ionizing radiation increased DNA-PKcs phosphorylation (data not shown). […] The basal activity of DNA-PKcs in MCF-7 cells in 25 mM glucose was detectable even in the absence of ionizing radiation, but this basal activity was suppressed with the DNA-PKcs-specific inhibitor NU7026 (data not shown).

neurons = conditions: low concentrations; De Felice et al. 2001; cited from earlier work
Elevated plus maze test = assay type: in vivo, mice; conditions: SCID mice, intraperitoneal injection, FIG. 33
Experimental: To evaluate whether SCID mice may also have altered anxiety, fear and depression-like traits, an elevated plus maze test was performed, which is a commonly used test to quantify the level of anxiety- and depression-like traits in rodents (Pellow et al. J. Neurosci. Methods 14: 149-67 (1985)). The elevated plus maze has narrow runways that are located 16 inches above the surface that are either closed or open. The animal is placed in the center of an elevated 4-arm maze in which 2 arms are open and 2 are enclosed. Mice generally avoid the open arms because of their fear of open space and height. The elevated plus-maze is used to determine the rodent's response to a potentially dangerous environment and anxiety-related behavior is measured by the degree to which the rodent avoids the unenclosed arms of the maze. Increase in the number of times the animal enters the open arm and the amount of time spent in the open arms reflect decreased anxiety and depression.
as §1

[2] = rats, systemic administration of kainic acid; Rong et al. 1999; cited from earlier work
[3] = in vitro; cited from earlier work
[4] = ROS levels in tissues of ob/ob mice; assay type: in vivo; conditions: FIG. 38
[5] = Treadmill running endurance; assay type: in vivo, mice; conditions: ob/ob mice, FIG. 39
Experimental: Previous studies have shown that increased expression of PPARδ or PGC-1α in skeletal muscle decreases exercise-induced fatigue. Therefore, tests were performed to ascertain what was the physical endurance of 4, 7 and 14 month-old SCID and WT mice using treadmill running. Prior to the exercise test, the mice were accustomed to and trained by running on an Exer-3/6 mouse treadmill (Columbus Instruments) at 7 m/min for 5 minutes for 3 days. For the endurance test, the treadmill speed was increased to 10 m/min and mice were allowed to run until exhaustion.
The therapeutic potential of DNA-PKcs inhibitors to reverse physical decline with aging was tested. In particular, the physical endurance of obese and middle-aged mice treated with Cpd36 was examined by treadmill running. Obese mice fed a high-fat diet that were treated with Cpd36 were able to run 40-50% farther over a given period of time than the control mice fed the same high fat diet (FIG. 45), as measured by totaling the distance run on a treadmill. Middle-aged mice (13 months) fed a breeder diet who were similarly treated with Cpd36 were also able to run 40-50% farther than middle aged mice that received no such treatment (data not shown).

[6] = middle cerebral artery ligation; Baker et al. 1998; cited from earlier work
C2C12 cells = assay: Mitochondrial DNA copy number in C2C12 cells; assay type: cell-based; conditions: C2C12 myoblasts, FIG. 49C
Experimental: Quantitative Real-Time PCR was used to assess the relative amounts of nuclear DNA and mtDNA, to permit assessment of the ratio of mtDNA to nucleic DNA, which reflects the tissue concentration of mitochondria per cell. Muscle tissues were homogenized and digested with Proteinase K overnight in a lysis buffer for DNA extraction by conventional phenol-chloroform method. Quantitative PCR was performed using the following primers: […]
(§2) Increased mitochondrial function boosts energy production and physical endurance. […] Further tests were therefore conducted to ascertain whether DNA-PKcs inhibitor elevates mitochondrial biogenesis and expression of PGC-1α and Sirt, which are important for mitochondrial biogenesis. […] It is important to note that only 2.5 μM of NU7026 was required to induce a similar level of Sirt1 to that induced by 25-50 μM Resveratrol, a well-known, potent Sirt1 activator. In FIG. 49C, mitochondrial DNA copy number increased (>1.8 fold) in C2C12 cells after 2.5 μM NU7026 treatment.

LKB1 = LKB1 activation (LKB1 phosphorylation) in C2C12 cells; assay type: cell-based; conditions: NU7026 2.5 μM, Resveratrol 50 μM, FIG. 51A
Experimental: Cells were treated with DNA-PKcs inhibitors to ascertain whether DNA-PKcs suppresses LKB1 activity in vitro.

Sirt1 and PGC-1α = Sirt1 and PGC-1α expression in C2C12 myoblasts; assay type: cell-based
Experimental: as §2, with “activator.” for “activator. In FIG. 49C, mitochondrial DNA copy number increased (>1.8 fold) in C2C12 cells after 2.5 μM NU7026 treatment.”

Compound: O=c1cc(N2CCOCC2)oc2c(-c3cccc4c3sc3ccccc34)cccc12 [NU7441, 8-dibenzothiophen-4-yl-2-morpholin-4-yl-chromen-4-one]
- IC50 (DNA-PK): 13 nM

Compound: CNCCC(Oc1ccc(C(F)(F)F)cc1)c1ccccc1 (stereo not drawn) [Fluoxetine]
- latency for pain reaction on hot plate ([1]; wild-type mice): increased the latency for pain reaction in wild-type mice

Compound: O=[N+]([O-])c1ccc(O)c([N+](=O)[O-])c1 [DNP, 2,4-dinitrophenol]
- Reactive oxygen species production (MCF7 cells): significantly decreased
- DNA-PKcs activation in the presence of 25 mM glucose (DNA-PKcs): decreased DNA-PKcs activation
- protection of neurons against amyloid-beta peptide toxicity (neurons): protect neurons against the toxicity of the amyloid-beta peptide

Compound: Cc1nccn1CC1CCc2c(c3ccccc3n2C)C1=O.Cl (stereo not drawn) [GR38032F]
- latency for pain reaction on hot plate ([1]; SCID mice): decreased the latency for pain reaction in SCID mice
- latency for pain reaction on hot plate ([1]; wild-type mice): not wild-type mice
- number of SCID mice that stayed in the open arm 30 sec or longer (Elevated plus maze test): decreased dramatically

Compound: Manganese (III) tetrakis(4-benzoic acid)porphyrin [MnTBAP]
- Reactive oxygen species production (MCF7 cells): significantly decreased
- DNA-PKcs activation in the presence of 25 mM glucose (DNA-PKcs): decreased DNA-PKcs activation

Compound: Cc1c(C)c2c(c(C)c1O)CCC(C)(COc1ccc(CC3SC(=O)NC3=O)cc1)O2 (racemic) [TZD, (±)-[[4-[(3,4-dihydro-6-hydroxy-2,5,7,8-tetramethl-2H-1-benzopyran-2-yl)methoxy]phenyl]methyl]-2,4-thiazolidinedione]
- Reactive oxygen species production (MCF7 cells): significantly decreased

Compound: Euk-134
- Reactive oxygen species production (MCF7 cells): significantly decreased
- glucose-induced reactive oxygen species production (MCF7 cells; glucose 0-25 mM, 3 hr, FIG. 2): partially suppressed
- oxidative stress and brain damage [2]: prevent oxidative stress and attenuate brain damage
- hydrogen peroxide consumption [3]: consumes hydrogen peroxide in vitro
- H2O2-induced DNA-PKcs activation (DNA-PKcs; MCF7 cells in G0, H2O2 60 minutes, FIG. 1): abrogated
- DNA-PKcs activation in the presence of 25 mM glucose (DNA-PKcs): decreased DNA-PKcs activation
- ROS production in muscle, WAT and heart tissues [4]: decreased ROS production
- treadmill running ability [5]: increased running ability of ob/ob mice dramatically
- effect in rat stroke model [6]: protective effects

Compound: CN(C)C(=N)NC(=N)N [metformin]
- DNA-PKcs activation in the presence of 25 mM glucose (DNA-PKcs): decreased DNA-PKcs activation

Compound: Oc1ccc(/C=C/c2cc(O)cc(O)c2)cc1 [Resveratrol]
- Reactive oxygen species production (MCF7 cells): significantly decreased
- relative copy number of mitochondrial DNA (C2C12 cells): increases
- LKB1 activation (LKB1 phosphorylation) (LKB1): showed LKB1 activation
- DNA-PKcs activation in the presence of 25 mM glucose (DNA-PKcs): decreased DNA-PKcs activation
- concentration required to induce a similar level of Sirt1 (Sirt1 and PGC-1α): 25 to 50 µM
- PGC-1α and Sirt1 expression (Sirt1 and PGC-1α; FIG. 49): increased
